Where a name gives a salt, the structure may show the parent alone. Bounds are passed on as bounds.

For `Cc1nc(N2CC=CC2)c2[nH]c(-c3ccccc3)cc2n1` (as salt: hydrochloride) (hydrate or solvate) [Example 61, 2-Methyl-6-phenyl-4-(pyrrolinyl)pyrrolo[3,2-d]pyrimidine Hydrochloride Monohydrate], the melting point (commonly the temperature of the solid-liquid transition) lay within 278 to 278.3 °C. For the compound `c1ccc(-c2nc(N3CCCCC3)c3[nH]c(-c4ccccc4)cc3n2)cc1` [Example 45d, 2,6-Diphenyl-4-piperidylpyrrolo[3,2-d]pyrimidine], the melting point fell in the range of 259 to 261.5 °C.

`Cc1nc(N2CCCCC2)c2c(cc(-c3ccccc3)n2C)n1` [Example 36, 2,5-Dimethyl-6-phenyl-4-piperidylpyrrolo[3,2-d]pyrimidine] gave a melting point of 131 to 132 °C.

`Cc1nc(NC[C@H]2CC[C@H](CNS(=O)(=O)c3cccc4ccccc34)CC2)c2[nH]c(-c3ccccc3)cc2n1` (as salt: hydrochloride) (hydrate or solvate) [Example 194, trans-[(4-{[(2-Methyl-6-phenylpyrrolo[2,3-e]pyrimidin-4-yl)amino]methyl}cyclohexyl)methyl](naphthylsulfonyl)amine Hydrochloride Hydrate]: the melting point fell in the range of 165 to 170 °C. Compound `CC(C)c1nc(N2CCCCC2)c2[nH]c(-c3ccccc3)cc2n1` [Example 19d, 2-Isopropyl-6-phenyl-4-piperidylpyrrolo[3,2-d]pyrimidine] yielded a melting point of 269.5 to 272 °C. For the compound `Cc1nc(N2CCCCC2)c2[nH]c(-c3cc4ccccc4s3)cc2n1.Cl` (hydrate or solvate), the melting point was above 280 °C. With `Cc1nc(N2CCCCC2)c2sc(-c3ccc(F)cc3)cc2n1` (as salt: hydrochloride) (hydrate or solvate) [Example 217, 6-(4-Fluorophenyl)-2-methyl-4-piperidylthiopheno[3,2-d]pyrimidine Hydrochloride Hydrate], the melting point was 285 to 287 °C. Regarding `Cc1nc(N2CCCCC2)c2[nH]c(C3CCCCC3)cc2n1.Cl` (hydrate or solvate) [Example 80d, 6-Cyclohexyl-2-methyl-4-piperidylpyrrolo[3,2-d]pyrimidine Hydrochloride Hydrate], the melting point is above 280 °C. `Cc1nc(N2CCCCC2)c2[nH]c(CCc3ccccc3)cc2n1.Cl` (hydrate or solvate) [Example 168, 2-Methyl-6-(2-phenylethyl)-4-piperidylpyrrolo[3,2-d]pyrimidine Hydrochloride Hydrate] yielded a melting point of 236 to 238 °C. In turn, `Cc1nc(N2C(C)C=CC2C)c2[nH]c(-c3ccccc3)cc2n1` (centres unmarked) (as salt: hydrochloride) (hydrate or solvate) [Example 220, 4-(2,5-Dimethyl(3-pyrrolinyl)-2-methyl-6-phenylpyrrolo[3,2-d]pyrimidine Hydrochloride Hydrate] registered a melting point of 242 to 243 °C. With `CC(=O)c1c(-c2ccccc2)[nH]c2c(N3CCCCC3)nc(C)nc12` [Example 49, 7-Acetyl-2-methyl-6-phenyl-4-piperidylpyrrolo[3,2-d]pyrimidine], the melting point is 188 to 190 °C. Regarding `c1ccc(-c2cc3nc(N4CCN(c5ccccc5)CC4)nc(N4CCCCC4)c3[nH]2)cc1` (as salt: hydrochloride) (hydrate or solvate), the melting point lay in the range of 267.5 to 270 °C. `Cc1nc(N2CCCCC2)c2[nH]c(-c3cc(F)cc(F)c3)c(C)c2n1.Cl` (hydrate or solvate) gave a melting point of 242 to 245 °C. The compound `Cc1nc(N2CCCCC2)c2[nH]c(-c3cc(C)oc3C)cc2n1.Cl` (hydrate or solvate) [Example 108, 2,5-Dimethyl-3-(2-methyl-4-piperidylpyrrolo[4,5-d]pyrimidin-6-yl)furan Hydrochloride Monohydrate] had a melting point of 238 to 240 °C. `Cc1nc(N2CC=CCC2)c2sc(-c3ccccc3)cc2n1` (as salt: hydrochloride) (hydrate or solvate) gave a melting point of 279 to 281 °C. As for `CCC1CCCCN1c1nc(C)nc2cc(-c3ccccc3)[nH]c12` (centres unmarked) (as salt: hydrochloride) (hydrate or solvate) [Example 64, 2-Methyl-6-phenyl-4-(2-ethylpiperidinyl)pyrrolo[3,2-d]pyrimidine Hydrochloride Hydrate], the melting point was 228 to 229 °C. In turn, `Cc1nc(N2CC=CC2)c2[nH]c(-c3cccc(Cl)c3)cc2n1` (as salt: hydrochloride) (hydrate or solvate) [Example 198, 6-(3-Chlorophenyl)-2-methyl-4-(3-pyrrolinyl)pyrrolo[3,2-d]pyrimidine Hydrochloride Hydrate] showed a melting point of 287.5 to 293 °C. `Cc1nc(N2CCN(S(=O)(=O)c3ccccc3)CC2)c2[nH]c(-c3ccccc3)cc2n1` (as salt: hydrochloride) (hydrate or solvate) [Example 227, 1-(2-Methyl-6-phenylpyrrolo[2,3-e]pyrimidin-4-yl(phenylsulfonyl)piperazine Hydrochloride Monohydrate] gave a melting point of 242 to 243 °C. Compound `Cc1nc(N2CCCCC2)c2[nH]c(C(C)(C)C)cc2n1.Cl` (hydrate or solvate) [Example 97, 6-(tert-Butyl)-2-methyl-4-piperidylpyrrolo[3,2-d]pyrimidine Hydrochloride Hydrate] returned a melting point of 256 to 258 °C.

Take `Cc1nc(N2CCCCC2)c2[nH]c(-c3ccc(Cl)c(Cl)c3)cc2n1.Cl` (hydrate or solvate) [Example 118, 6-(3,4-Dichlorophenyl)-2-methyl-4-piperidylpyrrolo[3,2-d]pyrimidine Hydrochloride Monohydrate]: the melting point fell in the range of 265 to 268 °C.

Take `Cc1nc(N2CCCCC2)c2[nH]c(-c3ccccc3F)cc2n1.Cl` (hydrate or solvate) [Example 102, 6-(2-Fluorophenyl)-2-methyl-4-piperidylpyrrolo[3,2-d]pyrimidine Hydrochloride Monohydrate]: the melting point fell in the range of 287 to 289 °C. Turning to `Cl.FC(F)(F)c1nc(N2CCCCC2)c2[nH]c(-c3ccccc3)cc2n1` (hydrate or solvate), the melting point is 235.1 to 237.5 °C (dec.). For `Cc1nc(N2CCCCC2)c2sc(C(C)(C)C)cc2[n+]1[O-].Cl`, the melting point is 202 to 203 °C (dec.). In turn, `Cc1nc(N2CCCCC2)c2[nH]c(C)c(-c3ccc(F)cc3)c2n1.Cl` came in with a melting point above 280 °C. The value for `Cl.c1ccc2oc(-c3cc4ncnc(N5CCCCC5)c4[nH]3)cc2c1` (hydrate or solvate) was 278.5 to 281 °C. Take `Cc1nc(N2CCC2)c2[nH]c(-c3ccccc3)cc2n1.Cl` (hydrate or solvate): the melting point was > 300 °C (dec.). Turning to `Cc1nc(N2CCCCC2)c2[nH]c(-c3cc(F)ccc3F)cc2n1.Cl` (hydrate or solvate), the melting point was in the range of 279 to 281 °C. Under `Cc1nc2c3c(cc(-c4ccccc4)n3CC3CCCCN23)n1.Cl` (centres unmarked) (hydrate or solvate) stands above 280 °C. The compound `c1ccc(-c2cc3nc(N4CCCCC4)nc(N4CCCCC4)c3[nH]2)cc1` (as salt: hydrochloride) [Example 208, 6-Phenyl-2,4-dipiperidylpyrrolo[3,2-d]pyrimidine Hydrochloride] yielded a melting point above 272 °C.

The values are drawn from patent publication US6583154B1, “Compounds and methods which modulate feeding behavior and related diseases” (Amgen Inc., priority 1998, dated 2003).
